Reference: ChEMBL document CHEMBL1201862, “PubChem BioAssay data set” (2004)
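Values below derive from 48-hour exposures of cells grown in 96-well plates, with endpoints linearly interpolated between the two concentrations bracketing the appropriate inhibition level. Here, GI50 denotes the concentration required for 50% inhibition of growth.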 Activity calls are given as the source filed them. Rule as the data show it: active = GI50 up to about 1.1 µM and inactive = higher.

Assays:
Experiment in all cases: growth of human tumour cells (NCI), 48 h
[1] = tested on: RPMI-8226
[2] = tested on: HCT-15
[3] = tested on: OVCAR-4
[4] = tested on: UO-31
[5] = tested on: MCF7
[6] = tested on: SW-620
[7] = tested on: NCI-H460
[8] = tested on: HCT-116
[9] = tested on: UACC-257
[10] = tested on: NCI/ADR-RES
[11] = tested on: OVCAR-5
[12] = tested on: SK-MEL-2
[13] = tested on: IGROV-1
[14] = tested on: SN12C
[15] = tested on: K562
[16] = tested on: COLO 205
[17] = tested on: SR
[18] = tested on: OVCAR-8
[19] = tested on: SF-268
[20] = tested on: NCI-H522

Structure (SMILES)	GI50 [1]	GI50 [2] [µM]	GI50 [3]	GI50 [4]	GI50 [5]	GI50 [6]	GI50 [7]	GI50 [8]	GI50 [9]	GI50 [10]	GI50 [11]	GI50 [12]	GI50 [13]	GI50 [14]	GI50 [15]	GI50 [16]	GI50 [17]	GI50 [18]	GI50 [19]	GI50 [20]
CC(C)(C)[Si](C)(C)OCC1OC(n2cnc3c(N)ncnc32)C2OC(=S)OC12 (configuration not stated)	37.9 µM (inactive)	26.2	81.3 µM (inactive)	23.5 µM (inactive)	34.6 µM (inactive)	32.7 µM (inactive)	32.7 µM (inactive)	27.4 µM (inactive)	43.3 µM (inactive)	23.5 µM (inactive)	26.7 µM (inactive)	26 µM (inactive)	25 µM (inactive)	35.5 µM (inactive)	4.84 µM (inactive)	35.6 µM (inactive)	38.5 µM (inactive)	35.1 µM (inactive)		
C=C(NC(=O)C(=C)NC(=O)c1csc(C2=NC3c4csc(n4)C4NC(=O)c5csc(n5)C(C(C)(O)C(C)O)NC(=O)C5CSC(=N5)/C(=C/C)NC(=O)C(C(C)O)NC(=O)c5csc(n5)C3(CC2)NC(=O)C(C)NC(=O)C(=C)NC(=O)C(=C)NC(=O)C(C(C)C)NC2C=Cc3c(C(C)O)cc(nc3C2O)C(=O)OC4C)n1)C(N)=O (configuration not stated)	1.29 µM (inactive)	9.25	> 52.4 µM (inactive)	60.5 µM (inactive)	1.33 µM (inactive)	0.673 µM (active)	4.7 µM (inactive)	0.312 µM (active)	2.91 µM (inactive)	> 42.2 µM (inactive)	4.09 µM (inactive)	2.22 µM (inactive)	7.28 µM (inactive)	3.75 µM (inactive)	0.774 µM (active)	0.468 µM (active)		0.935 µM (active)	7.19 µM (inactive)	0.158 µM (active)
C1CSCC2(COC2)CS1			> 100 µM (inactive)	> 100 µM (inactive)	> 100 µM (inactive)	> 100 µM (inactive)	> 100 µM (inactive)	> 100 µM (inactive)	> 100 µM (inactive)	> 100 µM (inactive)				> 100 µM (inactive)	> 100 µM (inactive)	> 100 µM (inactive)	> 100 µM (inactive)	> 100 µM (inactive)	> 100 µM (inactive)	> 100 µM (inactive)
CN1CN(c2ccccc2)C2(CCN(CCCCCCF)CC2)C1=O	> 100 µM (inactive)	54.5		26.7 µM (inactive)	23.8 µM (inactive)	53.8 µM (inactive)		28.8 µM (inactive)	35.2 µM (inactive)	16.4 µM (inactive)	35 µM (inactive)		40.3 µM (inactive)	68.9 µM (inactive)	> 100 µM (inactive)	21.1 µM (inactive)	> 100 µM (inactive)	> 100 µM (inactive)	94.8 µM (inactive)	> 100 µM (inactive)
CCOC(=O)NC(C(F)(F)F)(C(F)(F)F)P(=O)(OC(C)C)OC(C)C	> 100 µM (inactive)	> 100	> 100 µM (inactive)	> 100 µM (inactive)	> 100 µM (inactive)	> 100 µM (inactive)	> 100 µM (inactive)	> 100 µM (inactive)	> 100 µM (inactive)	> 100 µM (inactive)	> 100 µM (inactive)	> 100 µM (inactive)	> 100 µM (inactive)	> 100 µM (inactive)	> 100 µM (inactive)	> 100 µM (inactive)	> 100 µM (inactive)	> 100 µM (inactive)	> 100 µM (inactive)	
CCC1(O)CC(CCN(Cc2ccccc2)C(=O)OCc2ccccc2)C(OCc2ccccc2)C1O (configuration not stated)		13.4	7.66 µM (inactive)	16.2 µM (inactive)	6.38 µM (inactive)	36.1 µM (inactive)	13.4 µM (inactive)	17.5 µM (inactive)	16.1 µM (inactive)	10.8 µM (inactive)	17.7 µM (inactive)	14.4 µM (inactive)	20.4 µM (inactive)	24.4 µM (inactive)	4.69 µM (inactive)	16.2 µM (inactive)	12.2 µM (inactive)	15.6 µM (inactive)		10.1 µM (inactive)
CCCCCCCCCCCCCCCCCCNc1ccn(C2OC(COP(=O)(O)OCC3OC(n4cc(C)c(=O)[nH]c4=O)CC3O)C(O)C2O)c(=O)n1 (configuration not stated)	16.1 µM (inactive)	16.1	15.1 µM (inactive)	18.5 µM (inactive)	34.6 µM (inactive)	15.2 µM (inactive)	17.9 µM (inactive)	17.1 µM (inactive)	18.1 µM (inactive)	15.8 µM (inactive)	14.8 µM (inactive)			17.7 µM (inactive)	19.8 µM (inactive)	14.9 µM (inactive)	11.9 µM (inactive)	17.8 µM (inactive)	17.4 µM (inactive)	15.8 µM (inactive)
Nc1c(C(=O)c2ccccc2)nnc2ccccc12	33.7 µM (inactive)	30.1	29.8 µM (inactive)	24.7 µM (inactive)	20.4 µM (inactive)	41.2 µM (inactive)	24 µM (inactive)	24.6 µM (inactive)	28.2 µM (inactive)	21.5 µM (inactive)	36.5 µM (inactive)	17.4 µM (inactive)	26.6 µM (inactive)		30.8 µM (inactive)	18.5 µM (inactive)	38.4 µM (inactive)	33.7 µM (inactive)	35.6 µM (inactive)	
Nc1cc(Cl)cc2cc(Cl)cnc12	> 100 µM (inactive)	> 100	> 100 µM (inactive)	34.8 µM (inactive)	> 100 µM (inactive)	> 100 µM (inactive)	> 100 µM (inactive)	> 100 µM (inactive)	> 100 µM (inactive)	> 100 µM (inactive)	> 100 µM (inactive)		93.1 µM (inactive)	> 100 µM (inactive)	> 100 µM (inactive)	> 100 µM (inactive)	38 µM (inactive)	> 100 µM (inactive)	82.6 µM (inactive)	57 µM (inactive)
CC(C)=CC(=O)OC1C2C(C)C(=O)OC2C(O)C(C)C2C=CC(=O)C21C (configuration not stated)	1.48 µM (inactive)	2	3.13 µM (inactive)	6.03 µM (inactive)	2.43 µM (inactive)	1.68 µM (inactive)	1.96 µM (inactive)	1.66 µM (inactive)	3.94 µM (inactive)	4.3 µM (inactive)	7.83 µM (inactive)	4.15 µM (inactive)	3.33 µM (inactive)	3.69 µM (inactive)	2.14 µM (inactive)	1.87 µM (inactive)		1.79 µM (inactive)	1.57 µM (inactive)	0.569 µM (active)
CC(C)CCCCCCCCCCCCC(=O)NCC(=O)NC1C(C)OC(Nc2ncnc3c2ncn3C)C(O)C1O (configuration not stated)	2.43 µM (inactive)	> 100	6.41 µM (inactive)	1.9 µM (inactive)	> 100 µM (inactive)	5.37 µM (inactive)	3.09 µM (inactive)	1.54 µM (inactive)	19.4 µM (inactive)	> 100 µM (inactive)	7.33 µM (inactive)	8.34 µM (inactive)	2.94 µM (inactive)	3.5 µM (inactive)	> 73.3 µM (inactive)	3.81 µM (inactive)		4.27 µM (inactive)	3.21 µM (inactive)	6.7 µM (inactive)
CN1OC(=O)N(C)C1c1ccccc1 (configuration not stated)	> 100 µM (inactive)	> 100	> 100 µM (inactive)	> 100 µM (inactive)	> 100 µM (inactive)	> 100 µM (inactive)	> 100 µM (inactive)	> 100 µM (inactive)	> 100 µM (inactive)	> 100 µM (inactive)	> 100 µM (inactive)	> 100 µM (inactive)	> 100 µM (inactive)	> 100 µM (inactive)	> 100 µM (inactive)	> 100 µM (inactive)		> 100 µM (inactive)	> 100 µM (inactive)	> 100 µM (inactive)
OC(c1nc2ccccc2s1)(C(F)(F)F)C(F)(F)F	> 100 µM (inactive)	> 100	> 100 µM (inactive)	87.1 µM (inactive)	> 100 µM (inactive)	> 100 µM (inactive)	> 100 µM (inactive)	> 100 µM (inactive)	> 100 µM (inactive)	> 100 µM (inactive)	> 100 µM (inactive)	> 100 µM (inactive)	> 100 µM (inactive)	> 100 µM (inactive)	> 100 µM (inactive)	> 100 µM (inactive)		> 100 µM (inactive)	> 100 µM (inactive)	> 100 µM (inactive)
C=C1C(O)CC[C@]2(C)C1C1OC(C)(C)O[C@]13CC(=O)C(C)=C([C@H]1OC(C)(C)OC12)C3(C)C (some centres not stated)	96.8 µM (inactive)	> 100	96.4 µM (inactive)	> 100 µM (inactive)	65.8 µM (inactive)	> 100 µM (inactive)	> 100 µM (inactive)	> 100 µM (inactive)	> 100 µM (inactive)	> 100 µM (inactive)	> 100 µM (inactive)		> 100 µM (inactive)	> 100 µM (inactive)	90.2 µM (inactive)	> 100 µM (inactive)	> 100 µM (inactive)	> 100 µM (inactive)	> 100 µM (inactive)	
Cc1ccc(S(=O)(=O)n2cc(-c3cc(C(F)(F)F)ccn3)c3cc(Br)ccc32)cc1	69.2 µM (inactive)	21.9	12.3 µM (inactive)	11.2 µM (inactive)	5.26 µM (inactive)	74.6 µM (inactive)	36.5 µM (inactive)	14.5 µM (inactive)	27 µM (inactive)	34.2 µM (inactive)	50 µM (inactive)	3.07 µM (inactive)		28.3 µM (inactive)	> 100 µM (inactive)	59.2 µM (inactive)	54.6 µM (inactive)		27.4 µM (inactive)	
